Measured values as given in patent publication US6903134B2, “Formulation comprising benzofuranone derivatives for protection against oxidative stress” (Merck Patent GmbH, priority 2000, dated 2005).

Columns and labels:
[1] = 2,2-diphenyl-1-picrylhydrazyl (DPPH) assay, free-radical scavenging; format: biochemical; conditions: for free-radical scavenger / antioxidant properties compared with tocopherol (vitamin E): DPPH assay, same experimental set-up; for Absorbance in %, based on absorbance without THBC: 515 nm, 25° C., 1 cm, constant absorbance
From the text: The performance of the DPPH assay is described in Brand-Williams, W., Cuvelier, M. E. & Berset, C. […] Gamez, E. J. et al. “Antioxidant flavonoid glycosides from Daphniphyllum calycinum”; J. Nat. Prod.
2,2-Diphenyl-1-picrylhydrazyl is a free radical which is stable in solution. The unpaired electron results in a strong absorption band at 515 nm, and the solution has a dark violet colour. In the presence of a free-radical scavenger, the electron is paired, the absorption disappears, and the decoloration proceeds stoichiometrically taking into account the electrons taken up. The absorbance is measured in a photometer. The anti-free-radical property of the substance to be tested is determined by measuring the concentration at which 50% of the 2,2-diphenyl-1-picrylhydrazyl employed has reacted with the free-radical scavenger. This concentration is expressed as EC50, a value which can be considered to be a property of the substance under the given measurement conditions. The substance investigated is compared with a standard (for example tocopherol).
In addition, the slope of the straight lines in the linear region is determined and the EC50 calculated.
A 70 μM stock solution of 2,2-diphenyl-1-picrylhydrazyl (DPPH) in ethanol was prepared. Such amounts of 4,6,3′,4′-tetrahydroxybenzylcoumaranone (THBC) were added to aliquots of this solution so as to give the THBC/DPPH ratios indicated in Table 1. The absorbance was in each case measured at 515 nm, 25° C. and 1 cm, with Table 1 in each case indicating the value measured at constant absorbance. The values are plotted graphically against one another in FIG. 1, with the molar ratio being plotted on the x axis and the measured absorbance as a relative proportion of the absorbance measured for the stock solution (100%) being plotted on the y axis.

[2] = Stabilisation of dibenzoylmethane UV filters against decomposition by UV light; format: physicochemical; conditions: no method or figures given
From the text: The invention furthermore relates to the stabilisation of UV filters. A known and effective class of light-protection filter substances is formed by dibenzoylmethane derivatives. However, it is disadvantageous that these substances are very easily decomposed by UV light, and their protective properties are thus lost. An example of a light-protection filter from this class of compounds which is available on the market is 4-(tert-butyl)-4′-methoxydibenzoylmethane, which has the following structure: [drawing 18]

stabilisation action for dibenzoylmethanes [2]: particularly high stabilisation action
Compound: O=C1c2c(O)cc(O)cc2OC1Cc1ccc(O)c(O)c1 (centres unmarked) [THBC, 4,6,3′,4′-tetrahydroxybenzylcoumaranone]
free-radical scavenger / antioxidant properties compared with tocopherol (vitamin E) [1]: better free-radical scavenger properties than tocopherol
free-radical scavenger / antioxidant properties compared with tocopherol (vitamin E) ([1]; listed as 4,6,3′,4′-Tetrahydroxycoumaranone): more potent antioxidant than tocopherol
Absorbance in %, based on absorbance without THBC ([1]; THBC/DPPH 0.01): 97.66%
Absorbance in %, based on absorbance without THBC ([1]; THBC/DPPH 0.02): 94.04%
Absorbance in %, based on absorbance without THBC ([1]; THBC/DPPH 0.05): 87.02%
Absorbance in %, based on absorbance without THBC ([1]; THBC/DPPH 0.07): 79.15%
Absorbance in %, based on absorbance without THBC ([1]; THBC/DPPH 0.10): 72.13%
Absorbance in %, based on absorbance without THBC ([1]; THBC/DPPH 0.12): 62.72%
Absorbance in %, based on absorbance without THBC ([1]; THBC/DPPH 0.18): 44.18%
Absorbance in %, based on absorbance without THBC ([1]; THBC/DPPH 0.24): 26.08%
Absorbance in %, based on absorbance without THBC ([1]; THBC/DPPH 0.30): 16.16%
Absorbance in %, based on absorbance without THBC ([1]; THBC/DPPH 0.37): 15.73%
Absorbance in %, based on absorbance without THBC ([1]; THBC/DPPH 0.43): 15.27%
Absorbance in %, based on absorbance without THBC ([1]; THBC/DPPH 0.49): 15.27%
Absorbance in %, based on absorbance without THBC ([1]; THBC/DPPH 0.55): 15.27%
Absorbance in %, based on absorbance without THBC ([1]; THBC/DPPH 0.61): 15.05%
Absorbance in %, based on absorbance without THBC ([1]; THBC/DPPH 0.73): 14.19%
Absorbance in %, based on absorbance without THBC ([1]; THBC/DPPH 0.97): 14.56%
Absorbance in %, based on absorbance without THBC ([1]; THBC/DPPH 1.21): 14.56%
